Measured values reported in patent US12043590B2, “Co-crystals comprising levothyroxine and a dicarboxylic acid” (Sandoz AG, priority 2018, dated 2024).

Legend:
[1] = Hamad et al., Pharm Dev Technol 2015; 20(3): 314-319; cited from earlier work
[2] = Chemical stability: exposure to ambient air at 40° C. and 0% RH, followed by 1H-NMR
Protocol: A ^1H-NMR spectrum of each substance was recorded at the beginning of the test period, at 3 weeks and finally at 6 weeks. Spectra were recorded on a Bruker Avance-300 Spectrometer (Spectrometer frequency: 300 MHz). Each sample for analysis was prepared by dissolving about 20 mg of solid in 600 microlitres of d6-DMSO. All samples were analysed immediately after preparation.

[3] = Thermal stability (TGA); format: physicochemical; conditions: for Temperature range of desolvation event (TGA): TGA 20 to 235° C., 10 K/min, nitrogen purge, event = loss of EtOH, H2O or lactic acid
Protocol: Each sample (approximately 4±0.0005 mg using a UM3 ultramicrobalance, Mettler, Greifensee, CH) was weighed into an unsealed platinum sample holder (50 microlitre). The samples were heated from 20 to 235° C. at a rate of 10 K/min. Nitrogen (sample purge rate 20 mL/min and balance purge rate 40 mL/min)) was used as purge gas.

[4] = Thermal stability (DSC); format: physicochemical; conditions: for Onset temperature of decomposition peak (DSC) / Peak maximum temperature of decomposition peak (DSC) / Tpeak of desolvation event (first endothermic peak maximum, DSC): heating rate 20 K/min; for Onset temperature of decomposition peak (DSC) / Peak maximum temperature of decomposition peak (DSC): co-crystal: second endotherm, concomitant melting and decomposition, sodium pentahydrate: exotherm; for Tpeak of desolvation event (first endothermic peak maximum, DSC): DSC 20 to 235° C., dry nitrogen purge, event = loss of EtOH, H2O or lactic acid; for Stability against temperature stress compared to levothyroxine sodium pentahydrate (DSC conclusion): DSC analysis
Protocol: Each sample (approximately 4±0.0005 mg using a UM3 ultramicrobalance, Mettler, Greifensee, CH) was weighed into an aluminum pan (25 microlitre) and sealed with a cover, which was perforated by a needle. Dry nitrogen was used as the purge gas (purge rate: 20 mL/min). The samples were heated from 20 to 235° C. at a heating rate of 20 K/min.

[5] = TGA 10 K/min, up to about 120° C.
[6] = listed as L-tartaric acid L-lactic acid co-crystal
[7] = listed as L-tartaric acid co-crystal

SMILES | Chemical degradation on exposure to dry conditions in the presence of molecular oxygen [1] | Chemical stability under the applied stress conditions (1H-NMR) ([2]; ambient air (oxygen about 20.9 volume %), 6 weeks, spectra at start, 3 and 6 weeks) | 1H-NMR spectrum change after 3 weeks ([2]; ambient air, 3 weeks) | 1H-NMR spectrum change after 6 weeks ([2]; ambient air, 6 weeks) | Mass loss up to about 120° C. (TGA), in words [3, 5] | Temperature range of desolvation event (TGA) [3] | Onset temperature of decomposition peak (DSC) [4] | Peak maximum temperature of decomposition peak (DSC) [4] | Mass loss up to about 120° C. (TGA) [3, 5] | Temperature range of desolvation event (TGA) [3, 6] | Tpeak of desolvation event (first endothermic peak maximum, DSC) [4] | Tpeak of desolvation event (first endothermic peak maximum, DSC) [4, 6] | Stability against temperature stress compared to levothyroxine sodium pentahydrate (DSC conclusion) [4] | Temperature range of desolvation event (TGA) [3, 7] | Tpeak of desolvation event (first endothermic peak maximum, DSC) [4, 7]
N[C@@H](Cc1cc(I)c(Oc2cc(I)c(O)c(I)c2)c(I)c1)C(=O)[O-].[Na+] [levothyroxine sodium pentahydrate, Levothyroxine sodium pentahydrate, reference compound] | significant degradation | chemically unstable | additional peaks become evident | become even more intense | significant weight loss | ~30-120 °C | about 202 °C | about 205 °C | – | – | – | – | – | – | –
N[C@@H](Cc1cc(I)c(Oc2cc(I)c(O)c(I)c2)c(I)c1)C(=O)O [levothyroxine L-tartaric acid L-lactic acid co-crystal] | – | – | – | – | – | 150 to 170 °C | – | – | about 0.5 weight-% | ~150-170 °C | about 162 °C | 162 °C | more stabe against temperature stress | – | –
N[C@@H](Cc1cc(I)c(Oc2cc(I)c(O)c(I)c2)c(I)c1)C(=O)O [levothyroxine L-tartaric acid co-crystal] | – | – | – | – | only a slight mass loss | 150 to 170 °C | about 180 °C | about 197 °C | – | – | about 165 °C | – | more stable against temperature stress | ~150-170 °C | 165 °C
